From paper PMC12560410, “Multi spectroscopic investigations with molecular docking and molecular dynamics simulation of the binding mechanism of molnupiravir to bovine serum albumin” (BMC Chemistry, 2025)

Assays:
[1] = target: T1, bovine serum albumin (BSA) (Bos taurus, UniProt P02769); test: Site marker competition (indomethacin site I, diazepam site II) for MOL binding to BSA; conditions: 295 K, pH 7.4; for Kd: read-out: Log Ka (converted)
T1 construct: purchased BIOMARK laboratories (Pune, Maharashtra, India)
T1 sequence (P02769 25-607): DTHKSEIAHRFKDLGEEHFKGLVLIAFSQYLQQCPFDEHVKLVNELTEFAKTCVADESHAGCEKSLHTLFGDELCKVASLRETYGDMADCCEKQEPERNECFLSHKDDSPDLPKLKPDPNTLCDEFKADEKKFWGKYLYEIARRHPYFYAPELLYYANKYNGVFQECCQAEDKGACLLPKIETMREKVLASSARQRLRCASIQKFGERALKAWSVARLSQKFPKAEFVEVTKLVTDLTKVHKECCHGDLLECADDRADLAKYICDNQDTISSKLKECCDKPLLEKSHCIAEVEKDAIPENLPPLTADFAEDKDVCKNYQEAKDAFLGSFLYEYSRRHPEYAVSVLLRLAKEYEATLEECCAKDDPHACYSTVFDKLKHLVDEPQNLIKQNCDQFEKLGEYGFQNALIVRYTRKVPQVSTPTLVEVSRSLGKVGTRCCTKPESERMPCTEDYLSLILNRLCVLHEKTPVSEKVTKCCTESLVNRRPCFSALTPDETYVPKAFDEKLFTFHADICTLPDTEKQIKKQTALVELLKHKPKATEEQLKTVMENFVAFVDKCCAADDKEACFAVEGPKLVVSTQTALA
Protocol: This study was conducted using two specific site probes: indomethacin for site I and diazepam for site II. In these experiments, the concentrations of BSA and the site probes were kept constant at 3 µM and 10 µM, respectively, while the concentration of MOL was varied from 30 to 180 µM. Fluorescence intensity was measured at 350 nm with excitation at 295 nm, and all measurements were carried out at 295 K and pH 7.4. The binding equilibrium constants (Ka) of MOL to BSA alone, indomethacin-BSA, and diazepam-BSA complexes were compared.
The apparent binding constants (Ka) were calculated by plotting log[(F₀–F)/F] versus log[Q] in the absence and presence of site markers Figure S6.

[2] = target: T1, bovine serum albumin (BSA); test: Effect of common ions on binding affinity of MOL to BSA; conditions: 297 K, pH 7.4
Text: […] […] These findings can be used for further investigations into how different ions influence the binding affinity of MOL to BSA.
Ka′/Ka is the binding constant divided by the binding constant in the absence of the ion; r is the correlation coefficient.

BSA = target: T2, BSA (Bos taurus, UniProt P02769); test: Synchronous fluorescence spectroscopy of BSA with MOL; type: binding, bovine; conditions: MOL 0–180 µM, pH 7.4
T2 construct: purchased BIOMARK laboratories (Pune, Maharashtra, India)
T2 sequence (P02769 25-607): as above
Protocol: Initially, the synchronous fluorescence spectra of BSA were acquired at a concentration of 3µM, and then its mixtures with MOL ranged from 30 to 180 µM at pH 7.4. These spectra were obtained at spectral intervals of Δλ = 15 nm as well as Δλ = 60 nm, with a 10 mm path quartz cell and scanning rate of 1000 nanometers per minute (nm/min).
The polarity of the surrounding environment of the fluorescent amino acids in BSA is influenced by ligand interaction, and this has been studied using synchronous fluorescence spectroscopy. In this study, a scanning interval (Δλ) of 60 nm and 15 nm was set between the excitation and emission wavelengths, allowing for the observation of polarity alterations surrounding tyrosine (Tyr) and tryptophan (Trp) residues, respectively.
Spectra of BSA synchronous fluorescence were acquired for BSA solutions both with and without the addition of MOL (Fig. 4). […] The Ratios of Synchronous Fluorescence Quenching (RSFQ) were determined using Eq. 5 as follows: […]

[3] = set-up: method as in PMID 39912659, PMID 37526305; conditions: following oral administration; hydrolyzed by esterases to NHC; cited from earlier work
[4] = target: T1, bovine serum albumin (BSA); test: Fluorescence quenching of BSA by MOL (Stern–Volmer and modified Stern–Volmer analysis, thermodynamics); type: binding; conditions: for Ksv (Stern–Volmer quenching constant) / n (number of binding sites) / Kd: pH 7.4; for Kd: read-out: Log Ka (converted)
Protocol: The fluorescence of the tyrosine (Tyr) and tryptophan (Trp) residues observed for solutions that have a fixed BSA concentration 3 µM and different concentrations of MOL (30–180 µM) at pH 7.4. The emission spectra were obtained between 300 and 500 nm. The excitation wavelength was 295 nm, at temperatures 285, 290, 295, 303, and 308 K. […]
Utilizing the Stern–Volmer equation, the quenching mechanism was identified (Eq. 1):1 [drawing 1]
The fluorescence intensities of BSA in absence of MOL are indicated as [drawing 2] while those measured in the presence of MOL are referred to as [drawing 3] . The term [drawing 4] represents the Stern–Volmer quenching rate constant. MOL concentration represents the quencher concentration [drawing 5] .
F^0/F was plotted versus [Q], then the slope was calculated to obtain the values of Ksv as shown in the Stern–Volmer equation (Eq. 1) to assess the experimental results as shown in Fig. 3.
IFE-corrected fluorescence intensity values were calculated using the following formula: […]
The modified Stern–Volmer equation is used to determine the stoichiometry (n) and equilibrium association constant (Ka), which govern how small molecules interact with specific binding sites on a macromolecule (Eq. 2).2 [drawing 7]
where [drawing 8] represents the number of binding sites and [drawing 9] represents the binding constant, as calculated from the plots of log [(F0–F)/F] against log [Q]. The plot of the modified Stern–Volmer equation was illustrated in Fig. S2. […] The stoichiometry of the binding interaction concerning MOL and BSA was approximately 1:1, as indicated by the n value being close to unity.
The intercept and slope of the plot of ln Ka vs. 1/T were used to determine ΔS (entropy change) and ΔH (enthalpy change), respectively in accordance with the Vant’s Hoff equation (Eq. 3), as shown in Table 2.
Furthermore, the Gibbs–Helmholtz equation determines ΔG (Eq. 4).3 [drawing 10] 4 [drawing 11]
where ΔG denotes the Gibbs free energy change and R denotes the universal gas constant (8.314 J mol^−1 k^−1) while T is the absolute temperature (K). […] The negative values of both ΔH and ΔS indicate that the binding of MOL to BSA is primarily governed by hydrogen bonding and van der Waals interactions rather than hydrophobic forces. The thermodynamic results, was supported by docking analysis, confirming that hydrogen bonding and van der Waals contacts are the dominant driving forces in MOL–BSA complex formation. […] Moreover, the spontaneity of the interaction could reflect the favorable conformational stability of the MOL-BSA complex.

bovine serum albumin = target: T3, bovine serum albumin (Bos taurus, UniProt P02769); test: FT-IR spectroscopy of BSA with MOL; type: binding; conditions: BSA 3 µM, MOL 180 µM, pH 7.4
T3 construct: purchased BIOMARK laboratories (Pune, Maharashtra, India)
T3 sequence (P02769 25-607): as above
Protocol: FT-IR spectra of 3 µM bovine serum albumin solution in tris-HCl buffer, BSA (3 µM) in the presence of MOL (180 µM), and MOL alone (180 µM) at pH 7.4 were recorded using Tensor27—S2887 FT-IR spectrometer (Bruker, Germany) from 4000 to 1000 cm^− 1. Baseline correction and water vapor subtraction were applied prior to analysis.
FT-IR spectroscopy was utilized to examine the secondary structure of BSA in free, drug-bound forms and free drug by recording changes in spectra as shown in Fig. S5. However, slight differences were observed between these spectra. […] The results from the UV absorption and fluorescence analysis are consistent with this observation.

[5] = van't Hoff plot of ln Ka vs 1/T, 285–308 K

SMILES: CC(C)C(=O)OC[C@H]1O[C@@H](n2ccc(NO)nc2=O)[C@H](O)[C@@H]1O [MOL, Molnupiravir]
- Kd ([1]; in presence of diazepam (site II probe, 10 µM)): 361 µM
- Kd ([1]; in presence of indomethacin (site I probe, 10 µM)): 56.3 µM
- preferential binding site on BSA ([1]; site marker displacement): Sudlow’s site II
- Ka’/ Ka (binding constant divided by binding constant in absence of the ion) ([2]; Ca^2+ added (75 µM)): 0.9046
- Kd ([2]; Ca^2+ added (75 µM), read-out: Ka’ (binding constant) (converted)): 674 µM
- Ka’/ Ka (binding constant divided by binding constant in absence of the ion) ([2]; Co^2+ added (75 µM)): 1.6233
- Kd ([2]; Co^2+ added (75 µM), read-out: Log Ka (converted)): 375 µM
- Ka’/ Ka (binding constant divided by binding constant in absence of the ion) ([2]; Cu^2+ added (75 µM)): 0.2573
- Kd ([2]; Cu^2+ added (75 µM), read-out: Log Ka (converted)): 2370 µM
- Ka’/ Ka (binding constant divided by binding constant in absence of the ion) ([2]; No ion): 1
- Kd ([2]; No ion, read-out: Ka’ (binding constant) (converted)): 609 µM
- red shift in λmax of BSA synchronous fluorescence (BSA; Δλ = 15 nm (Tyr residues)): about 2 nm
- shift in λmax of BSA synchronous fluorescence (BSA; Δλ = 60 nm): no shift was detected
- systemic plasma concentration of parent drug [3]: no significant concentrations of the parent drug are detected systemically in plasma
- ΔG (Gibbs free energy change) ([4]; 285 K): -23.915 KJ mol ^− 1
- Ksv (Stern–Volmer quenching constant) ([4]; 285 K): 11100 L/mol
- n (number of binding sites) ([4]; 285 K): 1.072
- Kd ([4]; 285 K): 41.4 µM
- ΔG (Gibbs free energy change) ([4]; 290 K): -23.546 KJ mol ^− 1
- Ksv (Stern–Volmer quenching constant) ([4]; 290 K): 9635 L/mol
- n (number of binding sites) ([4]; 290 K): 1.077
- Kd ([4]; 290 K): 57.4 µM
- difference between IFE-corrected and uncorrected Ksv ([4]; 295 K): 0.9%
- ΔG (Gibbs free energy change) ([4]; 295 K): -23.252 KJ mol ^− 1
- corrected Stern–Volmer constant (Ksv) ([4]; 295 K, inner filter effect (IFE) corrected): 7160 L/mol
- Ksv (Stern–Volmer quenching constant) ([4]; 295 K): 7096 L/mol
- n (number of binding sites) ([4]; 295 K): 1.086
- Kd ([4]; 295 K): 76.3 µM
- uncorrected Stern–Volmer constant (Ksv) ([4]; 295 K, uncorrected): 7096 L/mol
- ΔG (Gibbs free energy change) ([4]; 303 K): -22.276 KJ mol ^− 1
- Ksv (Stern–Volmer quenching constant) ([4]; 303 K): 5288 L/mol
- n (number of binding sites) ([4]; 303 K): 1.066
- Kd ([4]; 303 K): 144 µM
- ΔG (Gibbs free energy change) ([4]; 308 K): -21.618 KJ mol ^− 1
- Ksv (Stern–Volmer quenching constant) ([4]; 308 K): 3800 L/mol
- n (number of binding sites) ([4]; 308 K): 1.055
- Kd ([4]; 308 K): 216 µM
- fluorescence quenching mechanism ([4]; Ksv inversely proportional to temperature): static interaction
- ΔH (enthalpy change) [4, 5]: -52.434 KJ.mol ^− 1
- ΔS (entropy change) [4, 5]: -99.63 J mol^− 1K^− 1
- amide band of BSA after addition of MOL (bovine serum albumin): shifted from 1610 cm^−1 to 1636 cm^−1
